Columns and labels:
[1] = molecular target: ATP synthase subunit alpha (Mus musculus, UniProt Q03265); assay: Streptavidin pulldown proteomics (LC-MS/MS), MB49 cells; assay type: binding, murine; settings: MB-49, 50 µM
Experimental: (§1) We used proteomics to identify potential molecular targets of 5c. A pulldown assay with streptavidin-agarose-coated magnetic beads was performed. Briefly, 5637 and MB49 cells were incubated with 50 µM 5c for 10 min and 1 h. After incubation, the cells were rinsed three times with cold phosphate-buffered saline (PBS), and cell lysates were prepared and clarified by centrifugation to remove cellular debris, including nuclei. The clarified lysates were incubated with streptavidin-coated magnetic beads to selectively bind biotinylated contents. Bound proteins were separated from unbound proteins through thorough bead washing. Proteins attached to the beads were eluted and analyzed on an Orbitrap Fusion Tribrid mass spectrometer (Thermo Scientific, New York, NY, USA) coupled with an Ultimate 3000 nano-UPLC system. Samples were trapped on a PepMap100 C18 trap column (5 µm, 0.3 × 5 mm) and separated on a PepMap RSLC C18 column (2 µm, 75 µm × 150 mm) using a gradient from 2 to 40% acetonitrile with 0.1% formic acid over 120 min at […] and 40 °C. MS data were acquired in positive mode using data-dependent acquisition (DDA), with precursor scans at 120,000 FWHM (400–2000 m/z), and MS/MS scans in top-speed mode (3 s cycle) using HCD fragmentation (NCE 32%). Proteins were identified and quantified based on peptide spectral matches (PSMs), and fold enrichment compared to controls was calculated to evaluate interaction strength.
(§2) The 5637 and MB49 cells were cultured and treated with higher concentrations of 5c (50 µM) for short period of times (10 min & 60 min) followed by whole cell lysis (WCL) preparation of both treated and untreated cells using modified RIPA buffer [NaCl (100mM), TrisCl (20mM, pH 7.4), EDTA (10 mM), TritonX-100 (0.5%), Glycerol (5%), Protease inhibitor cocktail (1x)] with gentle continuous rotation. The protein content of each WCL was estimated using Pierce™ BCA Protein Assay kit (Thermo-Scientific # 23225). The 100 µL of resuspended Dynabeads™ MyOne™ Streptavidin C1 (Invitrogen # 65001) were washed with PBST (PBS with 0.01% Tween™20) in a magnet stand as recommended in the manufacturer’s instructions. The washed beads were incubated with 200 µg of each WCL in separate tubes at room temperature for 2 h in a gentle end-over-end mixing. After incubation, beads were washed 3–5 times with PBST (0.01% Tween-20) on a magnetic stand and beads were decanted by after spinning and magnetization. The samples were stored at −80 °C till further analysis using LC-MS/MS by the Proteomics and Mass Spectrometry Core Laboratory of Augusta University.

[2] = tested on: Eukaryotic initiation factor 4A (eIF4A); assay: as above; assay type: binding, murine; settings: MB-49, 50 µM
Experimental: as §1, §2

[3] = molecular target: Histone H2A.Z (Mus musculus, UniProt P0C0S6); assay: as above; assay type: binding, murine; settings: MB-49, 50 µM
Experimental: as §1, §2

[4] = molecular target: Rab-like protein 6 (RABL6) (Mus musculus, UniProt Q5U3K5); assay: as above; assay type: binding, murine; settings: MB-49, 50 µM
Experimental: as §1, §2

[5] = molecular target: T-complex protein 1 subunit theta (Mus musculus, UniProt P42932); assay: as above; assay type: binding, murine; settings: MB-49, 50 µM
Experimental: as §1, §2

[6] = molecular target: Elongation factor 1-delta (EF1δ) (Homo sapiens, UniProt P29692); assay: Streptavidin pulldown proteomics (LC-MS/MS), 5637 cells; assay type: binding; settings: 5637, 50 µM
Experimental: as §1, §2

[7] = molecular target: Elongation factor 2 (eEF2) (Homo sapiens, UniProt P13639); assay: as above; assay type: binding; settings: 5637, 50 µM
Experimental: as §1, §2

[8] = molecular target: Filamin-A (FLNA) (Homo sapiens, UniProt P21333); assay: as above; assay type: binding; settings: 5637, 50 µM
Experimental: as §1, §2

[9] = molecular target: HSP 90-alpha (HSP90α) (Homo sapiens, UniProt P07900); assay: as above; assay type: binding; settings: 5637, 50 µM
Experimental: as §1, §2

[10] = molecular target: HSP 90-beta (HSP90β) (Homo sapiens, UniProt P08238); assay: as above; assay type: binding; settings: 5637, 50 µM
Experimental: as §1, §2

[11] = molecular target: Heterogeneous nuclear ribonucleoprotein U (HNRNPU) (Homo sapiens, UniProt Q00839); assay: as above; assay type: binding; settings: 5637, 50 µM
Experimental: as §1, §2

[12] = molecular target: Histone H2A type 2-C (HIST2H2AC) (Homo sapiens, UniProt Q16777); assay: as above; assay type: binding; settings: 5637, 50 µM
Experimental: as §1, §2

[13] = molecular target: Histone H4 (Homo sapiens, UniProt P62805); assay: as above; assay type: binding; settings: 5637, 50 µM
Experimental: as §1, §2

[14] = molecular target: Rab-like protein 6 (RABL6) (Homo sapiens, UniProt Q3YEC7); assay: as above; assay type: binding; settings: 5637, 50 µM
Experimental: as §1, §2

[15] = molecular target: Ras GTPase-activating-like protein IQGAP1 (Homo sapiens, UniProt P46940); assay: as above; assay type: binding; settings: 5637, 50 µM
Experimental: as §1, §2

[16] = molecular target: Receptor of activated protein C kinase 1 (RACK1) (Homo sapiens, UniProt P63244); assay: as above; assay type: binding; settings: 5637, 50 µM
Experimental: as §1, §2

[17] = molecular target: Ribosomal L1 domain-containing protein 1 (RSL1D1) (Homo sapiens, UniProt O76021); assay: as above; assay type: binding; settings: 5637, 50 µM
Experimental: as §1, §2

[18] = molecular target: T-complex protein 1 subunit theta (Homo sapiens, UniProt P50990); assay: as above; assay type: binding; settings: 5637, 50 µM
Experimental: as §1, §2

[19] = tested on: ATP-binding cassette sub-family A; assay: Streptavidin pulldown proteomics (LC-MS/MS), MB49 cells; set-up: species or system murine; settings: MB-49, 50 µM
Experimental: as §1, §2

[20] = molecular target: Poly(U)-binding-splicing factor 60 (PUF60) (Mus musculus, UniProt Q3UEB3); assay: as above; set-up: species or system murine; settings: MB-49, 50 µM
Experimental: as §1, §2

[21] = tested on: RNA-binding protein 39 (RBM39); assay: as above; set-up: species or system murine; settings: MB-49, 50 µM
Experimental: as §1, §2

Sequence of ATP synthase subunit alpha (Q03265 44-553): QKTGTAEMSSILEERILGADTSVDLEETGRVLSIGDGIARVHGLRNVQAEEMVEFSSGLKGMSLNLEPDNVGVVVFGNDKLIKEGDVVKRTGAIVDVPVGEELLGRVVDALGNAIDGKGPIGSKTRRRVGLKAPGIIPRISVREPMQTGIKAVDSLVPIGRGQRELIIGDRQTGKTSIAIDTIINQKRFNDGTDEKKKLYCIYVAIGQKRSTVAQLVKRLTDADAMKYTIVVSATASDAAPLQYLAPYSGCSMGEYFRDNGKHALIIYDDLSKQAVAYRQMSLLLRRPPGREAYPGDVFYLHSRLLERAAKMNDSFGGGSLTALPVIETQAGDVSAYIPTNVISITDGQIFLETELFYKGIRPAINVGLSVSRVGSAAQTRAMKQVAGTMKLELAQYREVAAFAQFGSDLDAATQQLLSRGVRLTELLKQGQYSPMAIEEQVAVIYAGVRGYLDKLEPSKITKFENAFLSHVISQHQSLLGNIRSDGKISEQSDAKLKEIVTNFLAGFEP
Sequence of ATP synthase subunit alpha (P56480 47-529 partner): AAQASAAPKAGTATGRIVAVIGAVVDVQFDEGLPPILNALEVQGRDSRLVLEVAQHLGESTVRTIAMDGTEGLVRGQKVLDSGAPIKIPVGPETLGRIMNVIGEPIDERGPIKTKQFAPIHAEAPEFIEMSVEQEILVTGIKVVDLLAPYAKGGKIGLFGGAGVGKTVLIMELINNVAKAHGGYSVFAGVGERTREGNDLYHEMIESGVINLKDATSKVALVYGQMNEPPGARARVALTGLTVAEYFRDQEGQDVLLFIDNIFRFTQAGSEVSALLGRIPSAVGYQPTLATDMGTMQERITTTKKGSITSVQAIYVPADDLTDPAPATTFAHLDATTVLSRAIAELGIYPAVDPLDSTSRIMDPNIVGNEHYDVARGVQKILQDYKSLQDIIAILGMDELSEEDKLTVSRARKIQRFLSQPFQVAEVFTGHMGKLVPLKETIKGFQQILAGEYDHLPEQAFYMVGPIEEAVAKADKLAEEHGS
Sequence of ATP synthase subunit alpha (Q91VR2 26-298 partner): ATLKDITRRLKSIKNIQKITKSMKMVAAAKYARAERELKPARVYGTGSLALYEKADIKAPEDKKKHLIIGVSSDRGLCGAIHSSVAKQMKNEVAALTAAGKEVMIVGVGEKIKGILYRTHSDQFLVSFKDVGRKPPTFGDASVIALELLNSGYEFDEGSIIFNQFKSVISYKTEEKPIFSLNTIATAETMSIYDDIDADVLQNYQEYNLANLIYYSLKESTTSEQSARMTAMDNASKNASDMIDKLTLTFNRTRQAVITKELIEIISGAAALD
Sequence of Poly(U)-binding-splicing factor 60 (PUF60) (Q3UEB3 whole entry): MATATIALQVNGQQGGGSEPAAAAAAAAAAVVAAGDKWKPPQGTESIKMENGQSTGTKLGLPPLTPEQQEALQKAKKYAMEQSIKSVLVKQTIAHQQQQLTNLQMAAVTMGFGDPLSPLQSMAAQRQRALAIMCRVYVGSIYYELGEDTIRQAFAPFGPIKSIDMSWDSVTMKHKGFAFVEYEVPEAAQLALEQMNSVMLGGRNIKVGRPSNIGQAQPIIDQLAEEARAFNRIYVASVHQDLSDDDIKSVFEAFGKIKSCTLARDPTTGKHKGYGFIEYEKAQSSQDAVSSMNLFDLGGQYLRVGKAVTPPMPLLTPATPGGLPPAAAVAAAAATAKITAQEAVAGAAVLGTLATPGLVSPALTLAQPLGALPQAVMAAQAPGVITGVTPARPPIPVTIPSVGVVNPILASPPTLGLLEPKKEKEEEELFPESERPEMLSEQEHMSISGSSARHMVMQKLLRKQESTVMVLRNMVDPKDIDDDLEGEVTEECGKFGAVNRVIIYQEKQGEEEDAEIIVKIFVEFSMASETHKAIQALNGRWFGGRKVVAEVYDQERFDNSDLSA
Sequence of Histone H2A.Z (P0C0S6 whole entry): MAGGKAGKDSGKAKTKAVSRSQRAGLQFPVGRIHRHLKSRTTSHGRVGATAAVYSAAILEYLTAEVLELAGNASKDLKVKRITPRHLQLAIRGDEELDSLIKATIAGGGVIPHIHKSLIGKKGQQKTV
Sequence of Rab-like protein 6 (RABL6) (Homo sapiens, UniProt Q3YEC7) (Q3YEC7 whole entry): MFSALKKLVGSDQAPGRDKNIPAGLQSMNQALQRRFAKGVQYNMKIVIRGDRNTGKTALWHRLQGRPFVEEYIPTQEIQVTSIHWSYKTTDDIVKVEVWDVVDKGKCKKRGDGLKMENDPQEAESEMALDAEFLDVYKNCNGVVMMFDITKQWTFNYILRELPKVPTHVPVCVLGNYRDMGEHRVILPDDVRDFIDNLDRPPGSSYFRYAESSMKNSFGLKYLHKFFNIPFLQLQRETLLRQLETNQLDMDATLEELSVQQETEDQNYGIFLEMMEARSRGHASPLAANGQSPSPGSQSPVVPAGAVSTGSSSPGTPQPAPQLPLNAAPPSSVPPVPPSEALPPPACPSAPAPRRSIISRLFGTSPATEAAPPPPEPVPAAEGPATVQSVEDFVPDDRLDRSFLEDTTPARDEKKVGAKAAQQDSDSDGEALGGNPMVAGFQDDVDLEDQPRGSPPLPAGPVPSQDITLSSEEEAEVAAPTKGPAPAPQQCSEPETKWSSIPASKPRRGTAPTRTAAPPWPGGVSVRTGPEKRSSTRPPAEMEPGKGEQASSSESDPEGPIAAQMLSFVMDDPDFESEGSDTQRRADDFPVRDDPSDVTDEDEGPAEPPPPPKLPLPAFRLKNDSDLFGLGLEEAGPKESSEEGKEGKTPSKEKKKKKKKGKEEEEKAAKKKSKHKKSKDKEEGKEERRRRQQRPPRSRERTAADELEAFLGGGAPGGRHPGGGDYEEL
Sequence of Rab-like protein 6 (RABL6) (Mus musculus, UniProt Q5U3K5) (Q5U3K5 whole entry): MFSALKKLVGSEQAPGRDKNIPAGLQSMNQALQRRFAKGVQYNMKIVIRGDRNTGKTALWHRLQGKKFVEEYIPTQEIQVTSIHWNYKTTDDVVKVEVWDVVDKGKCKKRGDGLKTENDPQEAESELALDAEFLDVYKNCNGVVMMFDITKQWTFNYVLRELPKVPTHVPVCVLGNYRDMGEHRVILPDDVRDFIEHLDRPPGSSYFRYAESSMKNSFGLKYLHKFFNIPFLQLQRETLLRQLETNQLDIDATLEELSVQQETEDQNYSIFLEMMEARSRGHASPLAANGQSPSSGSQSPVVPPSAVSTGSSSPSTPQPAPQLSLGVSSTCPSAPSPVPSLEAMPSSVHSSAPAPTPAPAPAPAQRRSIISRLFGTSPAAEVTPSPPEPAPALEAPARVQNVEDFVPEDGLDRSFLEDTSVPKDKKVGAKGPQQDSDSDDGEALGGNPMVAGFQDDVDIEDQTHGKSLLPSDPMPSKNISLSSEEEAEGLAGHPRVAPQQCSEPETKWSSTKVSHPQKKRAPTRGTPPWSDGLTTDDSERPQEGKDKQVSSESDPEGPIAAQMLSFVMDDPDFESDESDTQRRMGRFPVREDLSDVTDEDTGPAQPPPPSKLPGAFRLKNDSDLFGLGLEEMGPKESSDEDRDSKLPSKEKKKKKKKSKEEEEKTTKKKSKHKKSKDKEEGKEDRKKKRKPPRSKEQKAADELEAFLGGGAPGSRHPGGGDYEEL
Sequence of T-complex protein 1 subunit theta (Homo sapiens, UniProt P50990) (P50990 whole entry, one chain of several): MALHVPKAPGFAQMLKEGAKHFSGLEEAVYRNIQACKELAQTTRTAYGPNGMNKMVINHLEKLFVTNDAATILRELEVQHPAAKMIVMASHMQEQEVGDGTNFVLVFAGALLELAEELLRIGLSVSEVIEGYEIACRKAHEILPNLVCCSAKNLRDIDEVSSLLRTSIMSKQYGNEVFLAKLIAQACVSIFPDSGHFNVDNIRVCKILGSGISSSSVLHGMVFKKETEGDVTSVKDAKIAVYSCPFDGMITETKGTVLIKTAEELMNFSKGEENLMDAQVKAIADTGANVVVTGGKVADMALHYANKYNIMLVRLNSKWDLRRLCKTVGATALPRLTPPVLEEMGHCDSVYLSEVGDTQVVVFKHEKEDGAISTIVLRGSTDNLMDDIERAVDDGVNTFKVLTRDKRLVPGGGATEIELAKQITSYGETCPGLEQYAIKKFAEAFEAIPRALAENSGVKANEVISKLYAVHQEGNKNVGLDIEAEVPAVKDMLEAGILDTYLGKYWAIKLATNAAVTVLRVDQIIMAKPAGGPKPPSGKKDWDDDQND
Sequence of Heterogeneous nuclear ribonucleoprotein U (HNRNPU) (Q00839 whole entry): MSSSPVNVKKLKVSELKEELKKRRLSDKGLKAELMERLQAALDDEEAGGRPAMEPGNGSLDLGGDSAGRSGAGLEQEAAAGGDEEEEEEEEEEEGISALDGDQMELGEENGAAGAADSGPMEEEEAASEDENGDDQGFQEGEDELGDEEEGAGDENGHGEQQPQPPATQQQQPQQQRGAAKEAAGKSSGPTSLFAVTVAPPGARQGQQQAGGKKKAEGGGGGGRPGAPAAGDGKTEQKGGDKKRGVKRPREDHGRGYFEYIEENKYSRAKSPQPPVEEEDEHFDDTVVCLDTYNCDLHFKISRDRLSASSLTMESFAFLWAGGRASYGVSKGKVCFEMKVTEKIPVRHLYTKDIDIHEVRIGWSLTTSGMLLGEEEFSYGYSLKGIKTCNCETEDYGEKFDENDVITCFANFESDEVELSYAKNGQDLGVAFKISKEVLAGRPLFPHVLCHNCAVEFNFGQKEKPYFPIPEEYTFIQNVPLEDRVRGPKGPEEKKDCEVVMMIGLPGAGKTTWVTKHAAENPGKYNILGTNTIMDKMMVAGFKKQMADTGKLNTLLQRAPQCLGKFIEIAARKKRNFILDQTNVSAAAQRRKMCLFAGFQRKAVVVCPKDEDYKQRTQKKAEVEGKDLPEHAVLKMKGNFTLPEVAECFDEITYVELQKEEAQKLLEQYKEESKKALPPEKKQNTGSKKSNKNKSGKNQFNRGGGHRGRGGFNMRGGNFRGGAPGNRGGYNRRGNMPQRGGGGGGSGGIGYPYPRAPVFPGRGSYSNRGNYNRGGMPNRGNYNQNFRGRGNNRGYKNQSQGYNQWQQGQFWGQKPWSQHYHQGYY

Structure (SMILES): CC1CCC2(C(=O)OCCCCOC(=O)CCCCC3SCC4NC(=O)NC43)CCC3(C)C(=CCC4C5(C)CCC(O)C(C)(C)C5CCC43C)C2C1C [Compound 5c, 4-((5-((3aS,4S,6aR)-2-Oxohexahydro-1H-thieno [3,4-d]imidazol-4-yl)pentanoyl)oxy) butyl 3-hydroxy-urs-12-en-28-oate]
- Fold Change 10 min/Ctrl [1]: 1.26
- Fold Change 1 h/Ctrl [1]: 1.26
- Fold Change 10 min/Ctrl [2]: 1
- Fold Change 1 h/Ctrl [2]: 3
- Fold Change 10 min/Ctrl [3]: 1.86
- Fold Change 1 h/Ctrl [3]: 1.20
- Fold Change 10 min/Ctrl [4]: 3
- Fold Change 1 h/Ctrl [4]: 5.5
- Fold Change 10 min/Ctrl [5]: 2
- Fold Change 1 h/Ctrl [5]: 3
- Fold Change 10 min/Ctrl [6]: 8
- Fold Change 1 h/Ctrl [6]: 7
- Fold Change 10 min/Ctrl [7]: 44
- Fold Change 1 h/Ctrl [7]: 50
- Fold Change 10 min/Ctrl [8]: 16
- Fold Change 1 h/Ctrl [8]: 18
- Fold Change 10 min/Ctrl [9]: 119
- Fold Change 1 h/Ctrl [9]: 111
- Fold Change 10 min/Ctrl [10]: 93
- Fold Change 1 h/Ctrl [10]: 97
- Fold Change 10 min/Ctrl [11]: 4.33
- Fold Change 1 h/Ctrl [11]: 4.33
- Fold Change 10 min/Ctrl [12]: 3.48
- Fold Change 1 h/Ctrl [12]: 3.04
- Fold Change 10 min/Ctrl [13]: 13.23
- Fold Change 1 h/Ctrl [13]: 11.08
- Fold Change 10 min/Ctrl [14]: 1.33
- Fold Change 1 h/Ctrl [14]: 2.67
- Fold Change 10 min/Ctrl [15]: 3.5
- Fold Change 1 h/Ctrl [15]: 2.25
- Fold Change 10 min/Ctrl [16]: 6
- Fold Change 1 h/Ctrl [16]: 6
- Fold Change 10 min/Ctrl [17]: 5
- Fold Change 1 h/Ctrl [17]: 4
- Fold Change 10 min/Ctrl [18]: 14
- Fold Change 1 h/Ctrl [18]: 12
- Fold Change 10 min/Ctrl [19]: 1
- Fold Change 1 h/Ctrl [19]: 2
- Fold Change 10 min/Ctrl [20]: 2.33
- Fold Change 1 h/Ctrl [20]: 3.33
- Fold Change 10 min/Ctrl [21]: 2
- Fold Change 1 h/Ctrl [21]: 1.71

Reference: paper PMC12692861, “Biotin-Linked Ursolic Acid Conjugates as Selective Anticancer Agents and Target-Identification Tools for Cancer Therapy” (Molecules, 2025)
